{"source": "patent US7863271B2", "about": "“2-aminobenzoxazole carboxamides as 5HT3 modulators” (Albany Molecular Research, Inc., priority 2006, dated 2011)", "note": "pKi: −log10 of the molar value. Structures can show the parent of a compound that is named as a salt.", "data": [{"target": "T1, 5-HT3 (Homo sapiens, UniProt P46098)", "T1 sequence (P46098 24-478)": "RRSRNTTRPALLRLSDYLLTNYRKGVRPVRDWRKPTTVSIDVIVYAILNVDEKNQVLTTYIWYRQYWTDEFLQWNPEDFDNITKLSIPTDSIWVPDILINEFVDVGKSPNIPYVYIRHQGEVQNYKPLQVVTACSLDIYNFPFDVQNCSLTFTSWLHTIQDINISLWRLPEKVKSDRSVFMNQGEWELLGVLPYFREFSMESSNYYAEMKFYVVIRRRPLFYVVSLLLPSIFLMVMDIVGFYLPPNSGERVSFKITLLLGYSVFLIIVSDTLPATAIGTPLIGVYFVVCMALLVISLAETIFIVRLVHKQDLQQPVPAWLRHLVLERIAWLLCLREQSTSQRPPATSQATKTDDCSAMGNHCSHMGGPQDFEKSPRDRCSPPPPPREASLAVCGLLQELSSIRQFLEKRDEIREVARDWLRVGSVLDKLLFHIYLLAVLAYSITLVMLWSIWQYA", "experiment": "Compound affinity for the human 5-HT3 receptor (Assay B), SPA radioligand binding with [9-methyl-3H]BRL-43694", "design": "purchased Perkin Elmer", "details": "Assay B (method B unless otherwise annotated); read-out: 5-HT3 Ki", "description": "Compound Affinity for the human 5-HT3 Receptor (Assay B)\nThe relative affinity of the various compounds for the human 5-HT3 receptor was measured in a radioligand binding assay, using a scintillation proximity assay (SPA) format. Test compounds were dissolved to 10 mM in 100% DMSO, then serially diluted at 10× assay concentrations in 100% DMSO in 96-well polypropylene plates and further diluted to 4× assay concentrations with the assay buffer. […] Binding reactions were set up in wells of PicoPlates-96 (Perkin Elmer) by adding consecutively 50 μL of each competing compound or buffer, SPA beads, the radioligand and 5-HT3 receptor membranes. After 60-min incubation at room temperature on a Nutator mixer, plates were centrifuged for 15 min at 1,500 rpm, followed by incubation in the dark for 30 min. Radioactivity was counted in the TopCount microplate counter (Perkin Elmer) for 5 min. […] Specific binding was determined by subtracting nonspecific binding from total binding. All experiments were performed in duplicate using ten concentrations of a competing ligand, with ondansetron included as a control in every run. IC50 values were determined from specific binding data using XLfit4.1 curve fitting software from IDBS Ltd. Ki values were then calculated from the Cheng-Prusoff equation.", "values": [{"smiles": "C[C@H]1CN(Cc2ccccc2)C[C@H](C)N1c1nc2c(C(=O)NC3CC4CCCC(C3)N4C)cccc2o1", "note": "(stereo partly drawn) [Example 148, Endo-N-(9-methyl-9-azabicyclo[3.3.1]nonan-3-yl)-2-((2S,6S)-4-benzyl-2,6-dimethylpiperazin-1-yl)benzoxazole-4-carboxamide Hydrochloride]", "pKi": 8.80}, {"smiles": "CN(C)CCN(C)c1nc2c(C(=O)N[C@H]3C[C@H]4CCC[C@@H](C3)N4C)cccc2o1", "note": "[Example 31, Endo-N-(9-methyl-9-azabicyclo[3.3.1]nonan-3-yl)-2-((2-(dimethylamino)ethyl)(methyl)amino)benzoxazole-4-carboxamide hydrochloride]", "pKi": 6.97}, {"smiles": "CN1[C@@H]2CCC[C@H]1C[C@@H](NC(=O)c1cccc3oc(N4CCC[C@H]4C(N)=O)nc13)C2", "note": "[Example 53, Endo-N-(9-Methyl-9-azabicyclo[3.3.1]non-3-yl)-2-((S)-2-carbamoylpyrrolidin-1-yl)benzoxazole-4-carboxamide Hydrochloride]", "pKi": 6.67}, {"smiles": "Cc1nc[nH]c1CNC(=O)c1cc(Cl)cc2oc(N)nc12", "note": "[Example 145, N-((4-methyl-1H-imidazol-5-yl)methyl)-2-amino-6-chlorobenzoxazole-4-carboxamide]", "pKi": 6.90}, {"smiles": "C[C@H]1COC[C@H](C)N1c1nc2c(C(=O)N[C@@H]3CN4CCC3CC4)cccc2o1", "note": "[Example 90, (S)—N-(quinuclidine-8-yl)-2-((3S,5S)-3,5-Dimethylmorpholino)benzoxazole-4-carboxamide Hydrochloride]", "pKi": 8.17}, {"smiles": "CC(C)C[C@H]1CN(c2nc3c(C(=O)NC4CC5CCCC(C4)N5C)cccc3o2)CCN1", "note": "(stereo partly drawn) [Example 74, Endo-N-(9-Methyl-9-azabicyclo[3.3.1]nonan-3-yl)-2-((3S)-3-isobutylpiperazine-1-yl)benzoxazole-4-carboxamide Hydrochloride]", "pKi": 7.14}, {"smiles": "CNc1nc2c(C(=O)NC3CN4CCC3CC4)cccc2o1", "note": "[Example 113, (S)—N-(quinulidin-8-yl)-2-methylaminobenzoxazole-4-carboxamide Hydrochloride]", "pKi": 7.84}, {"smiles": "CN1[C@@H]2CCC[C@H]1C[C@@H](NC(=O)c1cccc3oc(NCCN4CCOCC4)nc13)C2", "note": "[Example 33, Endo-N-(9-Methyl-9-azabicyclo[3.3.1]nonan-3-yl)-2-(2-morpholinoethylamino)benzoxazole-4-carboxamide Trihydrochloride]", "pKi": 6.77}, {"smiles": "COC1CCN(c2nc3c(C(=O)N[C@H]4C[C@H]5CCC[C@@H](C4)N5C)cccc3o2)CC1", "note": "[Example 89, Endo-N-(9-Methyl-9-azabicyclo[3.3.1]nonan-3-yl)-2-(4-methoxypiperidin-1-yl)benzoxazole-4-carboxamide Hydrochloride]", "pKi": 7.43}, {"smiles": "CC1CNCCN1c1nc2c(C(=O)NC3CN4CCC3CC4)cccc2o1", "note": "[Example 26, (S)—N-(quinuclidine-8-yl)-2-(2-methylpiperazin-1-yl)benzoxazole-4-carboxamide Dihydrochloride]", "pKi": 6.62}, {"smiles": "C[C@H]1CN(C(=O)N(C)C)C[C@H](C)N1c1nc2c(C(=O)NC3CC4CCCC(C3)N4C)cccc2o1", "note": "(stereo partly drawn) [Example 136, Endo-N-(9-methyl-9-azabicyclo[3.3.1]nonan-3-yl)-2-((2S,6S)-2,6-dimethyl-4-(dimethylcarbamoyl)piperazin-1-yl)benzoxazole-4-carboxamide Hydrochloride]", "pKi": 8.59}, {"smiles": "CC[C@H]1CNCCN1c1nc2c(C(=O)NC3CC4CCCC(C3)N4C)cccc2o1", "note": "(stereo partly drawn) [Example 84, Endo-N-(9-Methyl-9-azabicyclo[3.3.1]nonan-3-yl)-2-((S)-2-ethylpiperazine-1-yl)benzoxazole-4-carboxamide Hydrochloride]", "pKi": 7.95}, {"smiles": "CC[C@H]1COCCN1c1nc2c(C(=O)NC3CC4CCCC(C3)N4C)cccc2o1", "note": "(stereo partly drawn) [Example 36, Endo-N-(9-Methyl-9-azabicyclo[3.3.1]nonan-3-yl)-2-((S)-3-ethylmorpholine)benzoxazole-4-carboxamide Hydrochloride]", "pKi": 8.33}, {"smiles": "CN1[C@@H]2CCC[C@H]1C[C@@H](NC(=O)c1cccc3oc(N4CCCCC4)nc13)C2", "note": "[Example 3, Endo-N-(9-Methyl-9-azabicyclo[3.3.1]non-3-yl)-2-(piperidin-1-yl)benzoxazole-4-carboxamide Hydrochloride]", "pKi": 7.98}, {"smiles": "CC[C@H]1COCCN1c1nc2c(C(=O)NC3CC4CCCC(C3)N4C)cc(Cl)cc2o1", "note": "(stereo partly drawn) [Example 62, Endo-N-(9-Methyl-9-azabicyclo[3.3.1]nonan-3-yl)-6-chloro 2-((S-3-ethylmorpholino)benzoxazole-4-carboxamide Hydrochloride]", "pKi": 8.20}, {"smiles": "CN1[C@@H]2CCC[C@H]1C[C@@H](NC(=O)c1cccc3oc(NC4CNC4)nc13)C2", "note": "[Example 16, Endo-N-(9-Methyl-9-azabicyclo[3.3.1]non-3-yl)-2-(azetidin-3-ylamino)benzoxazole-4-carboxamide Dihydrochloride]", "pKi": 6.75}, {"smiles": "C[C@H]1CN(C(=O)N2CCCC2)C[C@H](C)N1c1nc2c(C(=O)NC3CC4CCCC(C3)N4C)cccc2o1", "note": "(stereo partly drawn) [Example 140, Endo-N-(9-methyl-9-azabicyclo[3.3.1]nonan-3-yl)-2-((2S,6S)-2,6-dimethyl-4-(pyrrolidine-1-carbonyl)piperazin-1-yl)benzoxazole-4-carboxamide hydrochloride]", "pKi": 8.66}, {"smiles": "C[C@@H]1CN(c2nc3c(C(=O)NC4CC5CCCC(C4)N5C)cccc3o2)C[C@H](C)O1", "note": "(stereo partly drawn) [Example 17, Endo-N-(9-Methyl-9-azabicyclo[3.3.1]non-3-yl)-2-[(2S,6R)-2,6-dimethylmorpholino]benzoxazole-4-carboxamide Hydrochloride]", "pKi": 7.27}, {"smiles": "CN(C)CCNc1nc2c(C(=O)N[C@H]3C[C@H]4CCC[C@@H](C3)N4C)cccc2o1", "note": "[Example 32, Endo-N-(9-Methyl-9-azabicyclo[3.3.1]nonan-3-yl)-2-(2-(dimethylamino)ethylamino)benzoxazole-4-carboxamide Trihydrochloride]", "pKi": 6.63}, {"smiles": "C[C@H]1CN(CC2CC2)C[C@H](C)N1c1nc2c(C(=O)NC3CC4CCCC(C3)N4C)cccc2o1", "note": "(stereo partly drawn) [Example 119, Endo-N-(9-methyl-9-azabicyclo[3.3.1]nonan-3-yl)-2-((2S,6S)-4-(cyclopropylmethyl)-2,6-dimethylpiperazin-1-yl)benzoxazole-4-carboxamide Hydrochloride]", "pKi": 8.18}, {"smiles": "CN1CC2CC(NC(=O)c3cccc4oc(N5CCOCC5)nc34)CC(C1)N2C", "note": "(stereo not drawn) [Example 43, Exo-N-(3,9-Dimethyl-3,9-diazabicyclo[3.3.1]nonan-7-yl)-2-morpholinobenzoxazole-4-carboxamide Hydrochloride]", "pKi": 6.32}, {"smiles": "Nc1nc2c(C(=O)NC3CN4CCC3CC4)c(F)ccc2o1", "note": "[Example 139, (S)—N-(quinulidin-8-yl)-2-amino-5-fluorobenzoxazole-4-carboxamide Hydrochloride]", "pKi": 7.17}, {"smiles": "CN1CCN(c2nc3c(C(=O)N[C@H]4C[C@H]5CCC[C@@H](C4)N5C)cccc3o2)C(c2ccccc2)C1", "note": "(mixture of isomers) [Example 23, Endo-N-(9-Methyl-9-azabicyclo[3.3.1]non-3-yl)-2-(4-methyl-2-phenylpiperazin-1-yl)benzoxazole-4-carboxamide Dihydrochloride]", "pKi": 7.60}, {"smiles": "CN1[C@@H]2CCC[C@H]1C[C@@H](NC(=O)c1cccc3oc(N4CCn5ccnc5C4)nc13)C2", "note": "[Example 79, Endo-N-(9-Methyl-9-azabicyclo[3.3.1]nonan-3-yl)-2-(5,6-dihydroimidazo[1,2-a]pyrazin-7(8H)-yl)benzoxazole-4-carboxamide Hydrochloride]", "pKi": 7.53}, {"smiles": "CN1C2CCCC1CC(NC(=O)c1cccc3oc(N4CCOC[C@@H]4CO)nc13)C2", "note": "(stereo partly drawn) [Example 94, Endo-N-(9-Methyl-9-azabicyclo[3.3.1]nonan-3-yl)-2-((S)-3-(hydroxymethyl)morpholino)benzoxazole-4-carboxamide Hydrochloride]", "pKi": 7.56}, {"smiles": "C[C@H]1CNC[C@H](C)N1c1nc2c(C(=O)NC3CN4CCC3CC4)cccc2o1", "note": "(stereo partly shown) [Example 99, Hydrochloride]", "pKi": 7.88}, {"smiles": "CN1[C@@H]2CCC[C@H]1C[C@@H](NC(=O)c1cccc3oc(N4CCN(c5ncccn5)CC4)nc13)C2", "note": "[Example 42, Endo-N-(9-Methyl-9-azabicyclo[3.3.1]nonan-3-yl)-2-(4-(pyrimidin-2-yl)piperazin-1-yl)benzoxazole-4-carboxamide Hydrochloride]", "pKi": 7.96}, {"smiles": "CN1C2CCCC1CC(NC(=O)c1cccc3oc(N4CCNC[C@@H]4C(C)(C)C)nc13)C2", "note": "(stereo partly drawn) [Example 96, Endo-N-(9-Methyl-9-azabicyclo[3.3.1]nonan-3-yl)-2-((S)-2-tert-butylpiperazin-1-yl)benzoxazole-4-carboxamide Hydrochloride]", "pKi": 8.12}]}]}
